Results: patent EP3052475B1, “PHARMACEUTICAL USE OF 3-BENZYLSULFONYLPROPIONITRILE” (Olatec Therapeutics LLC, priority 2013, dated 2015)

What was measured:
[1] = tested on: tail flick reaction to heat; experiment: tail flick test in mice (49°C water bath); type: in vivo
Protocol: The tail flick test is a test of the pain response in animals. The tail flick test is used in basic pain research and to measure the effectiveness of analgesics, by observing the tail flick reaction to heat in an animal. This test assesses the nociceptive response to a local pain stimulus, and the ability of a drug to inhibit this response. […] The test compound was administered at a dosage of 500 mg/kg in DMSO. […] Each group had 10 mice. The response of mice to heat stimulus was evaluated by measuring the time of tail-flick or tail-flick latency from 49°C water bath. Briefly, the animal was held with its tail hanging down. Approximately 2 inches of the tail was immersed in a beaker of water at 38±1 °C for about 30 seconds, and this was done twice to acclimate the animal to the procedure. Subsequently, approximately 2 inches of the tail was immersed in a beaker of water at 49±1°C, at which point a timer was started. […] An ANOVA was done, and if p<0.05, a Dunnett's t test was employed to calculate significant difference between vehicle control and test compound treated groups. […] Results of tail flick response from each group are calculated as mean ± SEM (standard error of mean).

[2] = tested on: arachidonic acid-induced ear swelling; experiment: topical arachidonic acid-induced ear swelling model in mice; type: in vivo, Male ICR mice; settings: inhibition of ear swelling vs vehicle, measured at 90 minutes after arachidonic acid application; topical application 30 min before and 15 min after arachidonic acid; indomethacin 14 mM (0.1 mg/20 µL, n=5), test compound 375 mM (1.0 mg/20 µL, n=10); P <0.001
Protocol: 3-Benzylsulfonylpropionitrile, prepared from Example 1, was used in this experiment.
The test compound, indomethacin (positive control), and vehicle were evaluated for anti-inflammatory activity in a topical arachidonic acid-induced ear swelling model in mice.
Male ICR mice weighing 22 ± 2 g were used and randomly divided; the test compound and vehicle control had 10 mice, and indomethacin had 5 mice. Arachidonic Acid (0.5 mg in 20 µl of acetone:ethanol/1:1) was applied topically to the anterior and posterior surfaces of the right ear of each mice. Test substances and vehicle, as listed in Table 1 were similarly applied 30 min before and 15 min after arachidonic acid application. The thickness of the right ear and the left ear was measured and the difference calculated as an indication of the inflammation in the right ear. Ear swelling was measured by a Dyer model micrometer gauge at 60 and 90 minutes after arachidonic acid application as an index of inflammation. Percent inhibition was calculated according to the formula: Ic - It/Ic x 100, where Ic and It refers to increase of ear thickness (mm) in control and treated mice, respectively. ANOVA and Dunnett's test were employed to ascertain significant difference between vehicle control and treated groups. Significance is set at P<0.05 level.

SMILES	tail flick latency compared with vehicle-treated mice ([1]; mouse, in vivo)	% Inhibition [2] [%]	tail flick latency compared with vehicle-treated mice ([1]; 500 mg/kg in DMSO, oral gavage, measured at 30, 60 and 120 minutes post dosing, n=10, significance p<0.05)
CN1CC[C@]23c4c5ccc(O)c4O[C@H]2[C@@H](O)C=C[C@H]3[C@H]1C5 [morphine, reference compound]	statistically significant tail flick latency at 30 and 60 minutes, but not 120 minutes	–	–
N#CCCS(=O)(=O)Cc1ccccc1 [3-Benzylsulfonylpropionitrile, 3-benzylsulfonylpropionitrile]	–	35	statistically significant tail flick latency at 30, 60, and 120 minutes
